From the supplement of paper PMC10307832

Key:
Test in all cases: relative viability (nuclei count vs DMSO), 5 days (fraction); higher = more cells survive
[1] = compound: CC1=CC=C(C=C1)C(=O)CN2C3=C(CCCC3)SC2=N [Pifithrin_alpha] + Cc1nc(Nc2ncc(C(=O)Nc3c(C)cccc3Cl)s2)cc(N2CCN(CCO)CC2)n1 [Dasatinib] (partner 0.075 µM)
How it was run: (§1)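 The day after seeding in 1536-well plates, lung cancer cell lines were treated by pin tool with a single drug, or with a fixed anchor-drug dose together with five library-drug doses (not always all listed) in √10 steps. After 5 days, a combined fix-and-stain solution (final 0.05% Triton X-100, 1% formaldehyde, 1 ug/ml Hoechst) was added. Nuclei counted on 4× images gave relative viability as treated counts over vehicle counts, reported as the median of duplicate plates.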

[2] = compound: CNC(=O)c1ccccc1Sc1ccc2c(/C=C/c3ccccn3)n[nH]c2c1 [Axitinib] + Cc1nc(Nc2ncc(C(=O)Nc3c(C)cccc3Cl)s2)cc(N2CCN(CCO)CC2)n1 [Dasatinib] (partner 0.075 µM)
How it was run: as §1

[3] = compound: Nc1nc(Nc2ccc3c(c2)CC[C@@H](N2CCCC2)CC3)nn1-c1cc2c(nn1)-c1ccccc1CCC2 [Bemcentinib] + CS(=O)(=O)CCNCc1ccc(-c2ccc3ncnc(Nc4ccc(OCc5cccc(F)c5)c(Cl)c4)c3c2)o1 [Lapatinib] (partner 2 µM)
How it was run: as §1

[4] = compound: Nc1nc(Nc2ccc3c(c2)CC[C@@H](N2CCCC2)CC3)nn1-c1cc2c(nn1)-c1ccccc1CCC2 [Bemcentinib] + N=C(N)NC(=N)NCCc1ccccc1 [Phenformin] (partner 250 µM)
How it was run: as §1

Cell Line	relative viability ([1]; first compound 1 µM)	relative viability ([1]; first compound 3.162 µM)	relative viability ([1]; first compound 10 µM)	relative viability ([1]; first compound 31.62 µM)	relative viability ([1]; first compound 100 µM)	relative viability ([2]; first compound 0.005 µM)	relative viability ([2]; first compound 0.01581 µM)	relative viability ([2]; first compound 0.05 µM)	relative viability ([2]; first compound 0.1581 µM)	relative viability ([2]; first compound 0.5 µM)	relative viability ([3]; first compound 0.04 µM)	relative viability ([3]; first compound 0.1265 µM)	relative viability ([3]; first compound 0.4 µM)	relative viability ([3]; first compound 1.265 µM)	relative viability ([3]; first compound 4 µM)	relative viability ([4]; first compound 0.04 µM)	relative viability ([4]; first compound 0.1265 µM)	relative viability ([4]; first compound 0.4 µM)	relative viability ([4]; first compound 1.265 µM)	relative viability ([4]; first compound 4 µM)
NCI-H1755	0.39	0.622	0.391	0.362	0.401	0.444	0.436	0.479	0.439	0.388	1.11	1.23	1.01	0.996	1.01	0.652	0.62	0.648	0.59	0.622
NCI-H1666	0.808	0.81	0.682	0.588	0.542	0.836	0.838	0.825	0.88	0.829	0.668	0.813	0.599	0.649	0.606	0.572	0.675	0.564	0.564	0.635
PC-3 [JPC-3]	0.971	0.928	0.671	0.933	0.917	1.07	1.01	1.02	1	1.01	0.455	0.495	0.421	0.425	0.471	0.477	0.454	0.473	0.497	0.448
NCI-H358	0.165	0.169	0.187	0.181	0.16	0.116	0.153	0.155	0.142	0.146	0.496	0.415	0.373	0.531	0.464	0.321	0.348	0.325	0.355	0.39
NCI-H1975	0.257	0.242	0.2	0.214	0.2	0.413	0.342	0.393	0.347	0.39	0.962	1.02	0.894	0.79	0.853	0.405	0.428	0.428	0.437	0.417
LC-2-ad		0.492	0.347		0.437	0.526	0.572	0.425	0.546	0.486	0.921	1.09	0.979	0.943	0.995	0.535	0.601	0.592	0.602	0.588
NCI-H1993	0.531	0.532	0.581	0.559	0.608	0.609	0.708	0.735	0.712	0.52	0.695	0.757	0.847	0.8	0.885	0.465	0.501	0.528	0.505	0.487
CAL-12T	0.327	0.249	0.258		0.196	0.603	0.448	0.367	0.38	0.405	0.556	0.598	0.599	0.597	0.652	0.492	0.632	0.611	0.579	0.601
NCI-H1650		0.242	0.246	0.25	0.212	0.317	0.318	0.324	0.332	0.302	0.7	0.817	0.74	0.921	0.79	0.368	0.477	0.583	0.43	0.394
H3255	0.29	0.344	0.308	0.32	0.274	0.351	0.341	0.359	0.38	0.373	0.222	0.352	0.229	0.237	0.191	0.383	0.318	0.354	0.418	0.361
NCI-H2228	0.516	0.471	0.421	0.425	0.363	0.471	0.616	0.558	0.476	0.697		1.39	1.18	1.08	1.18	0.157	0.329	0.395	0.346	0.295
NCI-H727	0.357	0.421	0.394		0.346	0.403	0.371	0.436	0.465	0.347	0.713	0.875	0.877	0.864	1.01	0.626	0.709	0.493	0.363	0.671
NCI-H1355	0.502	0.409	0.386	0.414	0.445	0.723	0.766	0.779	0.757	0.642	0.908	1.1	1.04	1.13	1.07	0.442	0.444	0.483	0.42	0.484
LXF-289	0.204	0.201	0.172	0.167	0.145	0.242	0.208	0.285	0.304	0.271	0.887	0.908	0.988	0.972	0.924	0.523	0.533	0.534	0.532	0.54
NCI-H3122	0.82	0.901	0.732		0.758	0.881	0.819	0.895	0.724	0.735	0.818	1.03	1.03	1.02	1.03		0.412	0.366	0.358	0.381
NCI-H2023	0.432	0.324	0.348		0.275	0.537	0.525	0.701	0.515	0.621	0.739	0.866	0.868	0.808	0.874	0.398	0.445	0.424	0.423	0.365
NCI-H838	0.259	0.28	0.245	0.234	0.229	0.288	0.352	0.342	0.282	0.262	1.06	1.16	0.914	0.967	1.26	0.544	0.493	0.561	0.659	0.566
COR-L 105	0.315	0.292	0.323	0.243	0.323	0.318	0.327	0.417	0.303	0.415	0.311	0.327	0.416	0.338	0.394	0.529	0.432	0.561	0.494	0.45
RERF-LC-KJ	0.721	0.633	0.737	0.411	0.521	0.853	0.898	0.998	0.822	0.904	0.848	1.02	1.15	0.919	0.885	0.42	0.424	0.412	0.391	0.334
NCI-H2405	0.156	0.197	0.205	0.188	0.196	0.203	0.202	0.232	0.214	0.199	0.86	1.16	1.05	1.1	1.03	0.409	0.412	0.385	0.372	0.376
UMC-11	0.465	0.656	0.514	0.436	0.638	0.447	0.442	0.448	0.444	0.54	0.88	1.16	1.06	0.868	0.975	0.324	0.355	0.365	0.314	0.312
PC-14	0.207	0.166	0.134	0.0654	0.0425	0.247	0.227	0.297	0.257	0.314	0.336	0.372	0.339	0.3	0.284	0.458	0.704	0.648	0.581	0.465
HCC-78	0.259	0.354	0.336	0.417	0.455	0.328	0.288	0.534	0.387	0.329	0.113	0.443	0.693	0.281	0.0037	0.639	0.656	0.742		0.668
A-427	0.824	0.635	0.599	0.513	0.702	0.69	0.644	0.807	0.697	0.769		0.959	1.06	1.09	1.03	0.305	0.308	0.332	0.337	0.258
HCC-827	0.336	0.333	0.351	0.429	0.363	0.302	0.209	0.356	0.398	0.274	0.179	0.206	0.216	0.226	0.194	0.413	0.375	0.43	0.431	0.419
ABC-1	0.413	0.439	0.435	0.398	0.453	0.738	0.686	0.486		0.638	1.33	1.36	1.33	0.998	1.26	0.191	0.267	0.23	0.253	0.239
EPLC-272H	0.236	0.344	0.324	0.279	0.379	0.342	0.337	0.372	0.353	0.241		0.958	1.01	0.962	1.02	0.372	0.273	0.27	0.296	0.352
